Source: patent US20210009542A1 (Calico Life Sciences LLC, priority 2018, published 2021)
pIC50: −log10 of the molar value. Read-outs that look alike come from different tables or passages of the source.

Tests used:
[1] = tested on: Pan T cells isolated from C57BL6 splenocytes; experiment: T cell function assay (IFNγ and TNFα in supernatants, MSD V-plex); format: cell-based, mouse; details: 30 μM compound, 3 days, supernatant
Protocol: Pan T cells were isolated from C57BL6 splenocytes using a MACS Pan T cell isolation kit II (Miltenyi Biotec, Auburn, Calif.) according to the manufacturer's instructions. Isolated T cells (200,000 cells/well in a 96 well flat-bottom plate) were cultured in RPMI 1640 supplemented with 10% FBS, […] 2-mercatoethanol, 100 U/mL penicillin, and 100 μg/mL streptomycin, and incubated with the indicated concentration of compound or DMSO in duplicates. After 1 hour, mouse T cell activator CD3/CD28 Dynabeads (ThermoFisher Scientific, Waltham, Mass.) were added at a 1:5 beads to cells ratio to stimulate the T cells for 2 or 3 days as outlined below. T cells with or without compound were incubated in the absence of T cell activator beads (media only) as control.
After 3 days of stimulation, supernatants were collected and IFNγ and TNFα in supernatants were assessed using an MSD V-plex assay (Meso Scale Discovery, Rockville, Md.).

[2] = target: T1, His tagged PTPN2 (TC45) protein (Homo sapiens, UniProt P17706); experiment: Mobility shift assay (MSA) for potency of PTPN2 inhibitors; format: biochemical
T1 construct: made in house
T1 sequence (P17706 with tags, fused parts or gaps isoform P17706-2): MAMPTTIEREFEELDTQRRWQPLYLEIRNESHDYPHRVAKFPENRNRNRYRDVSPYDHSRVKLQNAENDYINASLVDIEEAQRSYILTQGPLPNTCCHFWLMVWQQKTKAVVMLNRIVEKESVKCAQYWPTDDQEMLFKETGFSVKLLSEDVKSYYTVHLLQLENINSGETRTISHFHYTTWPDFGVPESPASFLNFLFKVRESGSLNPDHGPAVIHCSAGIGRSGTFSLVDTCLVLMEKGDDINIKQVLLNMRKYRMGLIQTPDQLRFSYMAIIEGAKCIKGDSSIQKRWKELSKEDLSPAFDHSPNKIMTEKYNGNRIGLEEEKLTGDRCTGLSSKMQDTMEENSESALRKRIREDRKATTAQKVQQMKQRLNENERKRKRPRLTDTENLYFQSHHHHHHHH
In short: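 IC50 values were derived from % inhibition of substrate conversion, measured by microfluidic mobility shift (ex 488/em 530) after quenching. The fluorescent phosphotyrosine insulin-receptor peptide ([…]) reacted for 10 min at room temperature with 0.5 nM His-tagged TC45 PTPN2 that had been preincubated 10 min with compound (12 points, 1:3). Buffer was HEPES pH 7.5 with EGTA, EDTA, Tween 20 and DTT.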

[3] = tested on: B16F10 mouse melanoma cells; experiment: B16F10 IFNγ-induced cellular growth inhibition assay; format: cell-based; details: for inhibition at 33 µM: Mus musculus, B16-F10
In short: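 Live-cell imaging of confluence every 6 h over 5 days at 37 °C tracked growth of mouse B16F10 melanoma cells seeded overnight at 500/well. Semi-log compound series (final 100–0.001 μM, 0.1% DMSO) ran in both arms, ±IFNγ at 0.5 ng/mL final; inhibition taken relative to DMSO plus IFNγ when IFNγ-free DMSO wells passed 95% confluence.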

[4] = anti-CD3/anti-CD28 Dynabeads (1:5 beads:cells)
[5] = +0.5 ng/mL IFNγ, 33 μM compound, relative to DMSO control, read-out: % B16F10 growth inhibition (+0.5 ng/mL IFNγ) @ 33 μM
[6] = no IFNγ, 33 μM compound, read-out: % B16F10 growth inhibition (no IFNγ) @ 33 μM

Row | SMILES | IFNγ [1, 4] | TNFα [1, 4] | IFNγ ([1]; no TCR stimulation) | TNFα ([1]; no TCR stimulation) | pIC50 ([2]; Table 4, read-out: PTPN2 MSA IC50) | pIC50 ([2]; read-out: PTPN2 IC50) | pIC50 ([2]; read-out: PTPN2 MSA IC50) | inhibition at 33 µM ([3]; 33 μM, in the presence of IFNγ, read-out: growth inhibition in the presence of IFNγ compared to DMSO controls) | inhibition at 33 µM [3, 5] | inhibition at 33 µM [3, 6] | % B16F10 growth inhibition (+0.5 ng/mL IFNγ) @ 33 μM ([3]; Table 4, +0.5 ng/mL IFNγ, 33 μM) | % B16F10 growth inhibition (no IFNγ) @ 33 μM ([3]; Table 4, no IFNγ, 33 μM) | growth inhibition in the absence of IFNγ ([3]; absence of IFNγ)
1 | COc1ccc2cc(O)c(N3CC(=O)NS3(=O)=O)c(F)c2c1 [Compound 124, 5-(1-fluoro-3-hydroxy-7-methoxynaphthalen-2-yl)-1λ^6,2,5-thiadiazolidine-1,1,3-trione] | 435 ng/mL | 195 ng/mL | 1.2 ng/mL | 1.4 ng/mL | 8.00 to 9.00 | 8.36 | 8.00 to 9.00 | 60 to 90% | 60 to 90% | < 25% | B (a percent growth inhibition of 60-90%) | D (a percent growth inhibition of <25%) | no observed growth inhibition
2 | CC(C)(O)CCOc1ccc2cc(O)c(N3CC(=O)NS3(=O)=O)c(F)c2c1 [Compound 182, 5-[1-fluoro-3-hydroxy-7-(3-hydroxy-3-methylbutoxy)naphthalen-2-yl]-1λ^6,2,5-thiadiazolidine-1,1,3-trione] | 189 ng/mL | 135 ng/mL | – | – | – | – | > 9.00 | – | 60 to 90% | < 25% | – | – | –
